Experimental data published in patent US9434743B2, “Indazole derivatives” (TAKEDA PHARMACEUTICAL COMPANY LIMITED, priority 2012, dated 2016).

Experiments:
human MetAP2 enzyme [1] = target: T1, human MetAP2 enzyme (Homo sapiens, UniProt P50579); test: MetAP2 enzyme assay, enzyme complexed with manganese ions; conditions: MetAP2 Mn pIC50, MetAP2 enzyme complexed with manganese ions; Met-AMC substrate at Km
human MetAP2 enzyme [2] = target: T1, human MetAP2 enzyme; test: MetAP2 enzyme assay, enzyme complexed with cobalt ions; conditions: MetAP2 Co pIC50, MetAP2 enzyme complexed with cobalt ions; Met-AMC substrate at Km

T1 sequence (P50579 whole entry): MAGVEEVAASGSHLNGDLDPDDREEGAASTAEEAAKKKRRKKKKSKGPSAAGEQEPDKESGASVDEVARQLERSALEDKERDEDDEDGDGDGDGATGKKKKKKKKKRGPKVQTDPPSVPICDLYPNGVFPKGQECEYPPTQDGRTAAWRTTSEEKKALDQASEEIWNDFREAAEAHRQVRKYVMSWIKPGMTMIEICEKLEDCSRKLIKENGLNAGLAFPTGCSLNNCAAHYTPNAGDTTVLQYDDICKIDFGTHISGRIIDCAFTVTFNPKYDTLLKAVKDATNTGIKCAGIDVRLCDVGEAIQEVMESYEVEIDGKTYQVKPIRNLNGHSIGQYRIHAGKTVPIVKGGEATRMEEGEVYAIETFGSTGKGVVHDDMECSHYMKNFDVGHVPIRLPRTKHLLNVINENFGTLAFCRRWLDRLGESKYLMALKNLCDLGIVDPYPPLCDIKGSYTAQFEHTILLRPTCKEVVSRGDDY

| IC50 (human MetAP2 enzyme [1]) | IC50 (human MetAP2 enzyme [2]) | SMILES |
| --- | --- | --- |
| 3.98 nM | 20 nM | CN1C(=O)Cc2cc(-c3cc(C(F)(F)F)cc4[nH]ncc34)ccc21 [Example 234, 1-methyl-5-(6-(trifluoromethyl)-1H-indazol-4-yl)indolin-2-one] |
| 2.51 nM | 12.6 nM | O=c1[nH]c2ccc(-c3cc(C(F)(F)F)cc4[nH]ncc34)cc2[nH]1 [Example 237, 5-(6-(trifluoromethyl)-1H-indazol-4-yl)-1H-benzo[d]imidazol-2(3H)-one] |
| 6.31 nM | 39.8 nM | O=C1Cc2cc(-c3cc(C(F)(F)F)cc4[nH]ncc34)cnc2N1 [Example 238, 5-(6-(trifluoromethyl)-1H-indazol-4-yl)-1H-pyrrolo[2,3-b]pyridin-2(3H)-one] |
| 5.01 nM | 15.8 nM | O=C1Cc2ccc(-c3cc(C(F)(F)F)cc4[nH]ncc34)cc2N1 [Example 239, 6-(6-(trifluoromethyl)-1H-indazol-4-yl)indolin-2-one] |
| 5.01 nM | 39.8 nM | FC(F)(F)c1cc(-c2cnc3[nH]ncc3c2)c2cn[nH]c2c1 [Example 243, 5-(6-(trifluoromethyl)-1H-indazol-4-yl)-1H-pyrazolo[3,4-b]pyridine] |
| 3.16 nM | 100 nM | COc1ncc(-c2cc(C(F)(F)F)cc3[nH]ncc23)cn1 [Example 246, 4-(2-methoxypyrimidin-5-yl)-6-(trifluoromethyl)-1H-indazole] |
| 5.01 nM | 63.1 nM | COc1cc(-c2cc(C(F)(F)F)cc3[nH]ncc23)c(OC)nn1 [Example 248, 4-(3,6-dimethoxypyridazin-4-yl)-6-(trifluoromethyl)-1H-indazole] |
| 12.6 nM | 79.4 nM | COc1ccc(-c2cc(C(F)(F)F)cc3[nH]ncc23)c(C)n1 [Example 249, 4-(6-methoxy-2-methylpyridin-3-yl)-6-(trifluoromethyl)-1H-indazole] |
| 6.31 nM | 79.4 nM | Cn1ncc(-c2cc(C(F)(F)F)cc3[nH]ncc23)c1CO [Example 250, (1-methyl-4-(6-(trifluoromethyl)-1H-indazol-4-yl)-1H-pyrazol-5-yl)methanol] |
| 5.01 nM | 63.1 nM | NC(=O)c1ccc(-c2cc(C(F)(F)F)cc3[nH]ncc23)cn1 [Example 251, 5-(6-(trifluoromethyl)-1H-indazol-4-yl)picolinamide] |
| 31.6 nM | 794 nM | CNC(=O)c1ncncc1-c1cc(C(F)(F)F)cc2[nH]ncc12 [Example 254, N-methyl-5-(6-(trifluoromethyl)-1H-indazol-4-yl)pyrimidine-4-carboxamide] |
| 7.94 nM | 25.1 nM | Cc1nc(N)ccc1-c1cc(C(F)(F)F)cc2[nH]ncc12 [Example 255, 6-methyl-5-(6-(trifluoromethyl)-1H-indazol-4-yl)pyridin-2-amine] |
| 10 nM | 126 nM | COc1ncc(-c2cc(C(F)(F)F)cc3[nH]ncc23)c(N)n1 [Example 256, 2-methoxy-5-(6-(trifluoromethyl)-1H-indazol-4-yl)pyrimidin-4-amine] |
| 7.94 nM | 50.1 nM | Cc1nc(NS(C)(=O)=O)ccc1-c1cc(C(F)(F)F)cc2[nH]ncc12 [Example 257, N-(6-methyl-5-(6-(trifluoromethyl)-1H-indazol-4-yl)pyridin-2-yl)methanesulfonamide] |
| 39.8 nM | 1000 nM | O=C(O)Cn1cc(-c2cc(C(F)(F)F)cc3[nH]ncc23)cn1 [Example 261, 2-(4-(6-(trifluoromethyl)-1H-indazol-4-yl)-1H-pyrazol-1-yl)acetic acid] |
| 10 nM | 200 nM | O=C(c1ccc(-c2cc(C(F)(F)F)cc3[nH]ncc23)cn1)N1CCOCC1 [Example 262, morpholino(5-(6-(trifluoromethyl)-1H-indazol-4-yl)pyridin-2-yl)methanone] |
| 15.8 nM | 20 nM | COC(=O)c1ccc(OC)c(-c2cc(C(F)(F)F)cc3[nH]ncc23)c1 [Example 263, methyl 4-methoxy-3-(6-(trifluoromethyl)-1H-indazol-4-yl)benzoate] |
| 10 nM | 100 nM | COC(=O)c1c[nH]c(=O)c(-c2cc(C(F)(F)F)cc3[nH]ncc23)c1 [Example 265, methyl 6-oxo-5-(6-(trifluoromethyl)-1H-indazol-4-yl)-1,6-dihydropyridine-3-carboxylate] |
| 12.6 nM | 63.1 nM | COc1ccc(C(=O)N2CCN(C)CC2)cc1-c1cc(C(F)(F)F)cc2[nH]ncc12 [Example 266, (4-methoxy-3-(6-(trifluoromethyl)-1H-indazol-4-yl)phenyl)(4-methylpiperazin-1-yl)methanone] |
| 15.8 nM | 39.8 nM | COc1ccc(C(=O)NCCO)cc1-c1cc(C(F)(F)F)cc2[nH]ncc12 [Example 268, N-(2-hydroxyethyl)-4-methoxy-3-(6-(trifluoromethyl)-1H-indazol-4-yl)benzamide] |
| 12.6 nM | 316 nM | CN1CCN(C(=O)c2ccc(-c3cc(C(F)(F)F)cc4[nH]ncc34)cn2)CC1 [Example 271, (4-methylpiperazin-1-yl)(5-(6-(trifluoromethyl)-1H-indazol-4-yl)pyridin-2-yl)methanone] |

Further lines, the molecule ahead of its results:

| SMILES | IC50 (human MetAP2 enzyme [1]) | IC50 (human MetAP2 enzyme [2]) |
| --- | --- | --- |
| NC(=O)c1cc(-c2cc(C(F)(F)F)cc3[nH]ncc23)cnc1N [Example 233, 2-amino-5-(6-(trifluoromethyl)-1H-indazol-4-yl)nicotinamide] | 7.94 nM | 100 nM |
| O=C1Cc2cc(-c3cc(C(F)(F)F)cc4[nH]ncc34)ccc2N1 [Example 235, 5-(6-(trifluoromethyl)-1H-indazol-4-yl)indolin-2-one] | 3.98 nM | 12.6 nM |
| FC(F)(F)c1cc(-c2ccc3[nH]ncc3c2)c2cn[nH]c2c1 [Example 236, 6-(trifluoromethyl)-1H,1′H-4,5′-biindazole] | 6.31 nM | 63.1 nM |
| FC(F)(F)c1cc(-c2cnc3[nH]ccc3n2)c2cn[nH]c2c1 [Example 240, 2-(6-(trifluoromethyl)-1H-indazol-4-yl)-5H-pyrrolo[2,3-b]pyrazine] | 5.01 nM | 158 nM |
| O=c1[nH]c2cc(-c3cc(C(F)(F)F)cc4[nH]ncc34)cnc2[nH]1 [Example 241, 6-(6-(trifluoromethyl)-1H-indazol-4-yl)-1H-imidazo[4,5-b]pyridin-2(3H)-one] | 2 nM | 15.8 nM |
| FC(F)(F)c1cc(-c2cnc3[nH]c(C(F)(F)F)nc3c2)c2cn[nH]c2c1 [Example 242, 2-(trifluoromethyl)-6-(6-(trifluoromethyl)-1H-indazol-4-yl)-3H-imidazo[4,5-b]pyridine] | 6.31 nM | 50.1 nM |
| O=C1CNc2ncc(-c3cc(C(F)(F)F)cc4[nH]ncc34)cc2N1 [Example 244, 7-(6-(trifluoromethyl)-1H-indazol-4-yl)-3,4-dihydropyrido[2,3-b]pyrazin-2(1H)-one] | 5.01 nM | 31.6 nM |
| Cn1cnc(N)c(-c2cc(C(F)(F)F)cc3[nH]ncc23)c1=O [Example 245, 6-amino-3-methyl-5-(6-(trifluoromethyl)-1H-indazol-4-yl)pyrimidin-4(3H)-one] | 31.6 nM | 1580 nM |
| CN(C)c1ncc(-c2cc(C(F)(F)F)cc3[nH]ncc23)cn1 [Example 247, N,N-dimethyl-5-(6-(trifluoromethyl)-1H-indazol-4-yl)pyrimidin-2-amine] | 3.98 nM | 50.1 nM |
| Cc1nccc(N)c1-c1cc(C(F)(F)F)cc2[nH]ncc12 [Example 252, 2-methyl-3-(6-(trifluoromethyl)-1H-indazol-4-yl)pyridin-4-amine] | 100 nM | 1580 nM |
| COc1cc(C)c(-c2cc(C(F)(F)F)cc3[nH]ncc23)cn1 [Example 253, 4-(6-methoxy-4-methylpyridin-3-yl)-6-(trifluoromethyl)-1H-indazole] | 10 nM | 63.1 nM |
| COCC(=O)Nc1ccc(-c2cc(C(F)(F)F)cc3[nH]ncc23)c(C)n1 [Example 258, 2-methoxy-N-(6-methyl-5-(6-(trifluoromethyl)-1H-indazol-4-yl)pyridin-2-yl)acetamide] | 7.94 nM | 25.1 nM |
| Cc1nc(NS(=O)(=O)c2cnn(C)c2)ccc1-c1cc(C(F)(F)F)cc2[nH]ncc12 [Example 259, 1-methyl-N-(6-methyl-5-(6-(trifluoromethyl)-1H-indazol-4-yl)pyridin-2-yl)-1H-pyrazole-4-sulfonamide] | 7.94 nM | 31.6 nM |
| CCOC(=O)Cn1cc(-c2cc(C(F)(F)F)cc3[nH]ncc23)cn1 [Example 260, ethyl 2-(4-(6-(trifluoromethyl)-1H-indazol-4-yl)-1H-pyrazol-1-yl)acetate] | 6.31 nM | 100 nM |
| NC(=O)Cn1cc(-c2cc(C(F)(F)F)cc3[nH]ncc23)cn1 [Example 264, 2-(4-(6-(trifluoromethyl)-1H-indazol-4-yl)-1H-pyrazol-1-yl)acetamide] | 6.31 nM | 100 nM |
| COc1ccc(C(=O)N2CCOCC2)cc1-c1cc(C(F)(F)F)cc2[nH]ncc12 [Example 267, (4-methoxy-3-(6-(trifluoromethyl)-1H-indazol-4-yl)phenyl)(morpholino)methanone] | 10 nM | 39.8 nM |
| COC(=O)c1ccc(-c2cc(C(F)(F)F)cc3[nH]ncc23)cn1 [Example 269, methyl 5-(6-(trifluoromethyl)-1H-indazol-4-yl)picolinate] | 3.98 nM | 63.1 nM |
| O=C(NCCO)c1ccc(-c2cc(C(F)(F)F)cc3[nH]ncc23)cn1 [Example 270, N-(2-hydroxyethyl)-5-(6-(trifluoromethyl)-1H-indazol-4-yl)picolinamide] | 3.16 nM | 39.8 nM |
| COc1ccc(C(=O)N(C)C)cc1-c1cc(C(F)(F)F)cc2[nH]ncc12 [Example 272, 4-methoxy-N,N-dimethyl-3-(6-(trifluoromethyl)-1H-indazol-4-yl)benzamide] | 10 nM | 39.8 nM |
